Like-named read-outs stand apart in the source and are kept apart here. Square brackets hold non-standard residues; d marks the D form. Peptide text beside a SMILES is read from it.
Tests used:
[1] = target: hJNK3 (Homo sapiens, UniProt P53779); assay: hJNK3 | IC50; conditions: read-out: hJNK3 | IC50
Excerpt: (§1) Table printed on a drawing sheet, Fig. 4
Head of the field: hJNK3 | IC50
(§2) The patent's description of the figure: FIG. 4: Table illustrating the inhibitory efficacy of several JNK inhibitors according to the present invention, which are fusion proteins of a JNK inhibitory (poly-)peptide sequence and a transporter sequence. Given are the IC50 values in the nM range, the respective standard error of the mean (SEM) and the number of experiments performed (n).
(§3) First copying reader's note: The sheet prints no unit for IC50 (the description says nM range); decimal commas are used, except for three IC50 cells printed with a point (3820.81, 5340.33, 8130.86).
Where the first naming reader finds the target: head: hJNK3 | IC50

[2] = target: hJNK2 (Homo sapiens, UniProt P45984); assay: hJNK2 | IC50
Excerpt: as §1
Head of the field: hJNK2 | IC50
as §2, §3
Where the first naming reader finds the target: head: hJNK2 | IC50

[3] = target: T1, hJNK1 (Homo sapiens, UniProt P45983); assay: hJNK1 | IC50; conditions: read-out: hJNK1 | IC50
T1 construct: His; purchased Upstate 14-327
Excerpt: as §1
Head of the field: hJNK1 | IC50
as §2, §3
Where the first naming reader finds the target: head: hJNK1 | IC50

T1 sequence (P45983 whole entry, looked up): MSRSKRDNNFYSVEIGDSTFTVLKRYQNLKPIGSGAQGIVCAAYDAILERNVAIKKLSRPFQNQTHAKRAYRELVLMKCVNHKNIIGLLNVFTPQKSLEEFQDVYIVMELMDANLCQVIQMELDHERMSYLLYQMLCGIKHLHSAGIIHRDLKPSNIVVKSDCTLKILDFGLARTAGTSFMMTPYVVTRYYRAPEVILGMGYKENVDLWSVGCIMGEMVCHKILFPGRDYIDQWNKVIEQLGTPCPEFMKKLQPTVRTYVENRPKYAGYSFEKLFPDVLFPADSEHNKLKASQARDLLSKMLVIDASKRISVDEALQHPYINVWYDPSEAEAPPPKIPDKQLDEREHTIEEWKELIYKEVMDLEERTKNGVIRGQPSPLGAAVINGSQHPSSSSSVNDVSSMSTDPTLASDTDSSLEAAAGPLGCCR
Sequence of hJNK2 (P45984 whole entry, looked up): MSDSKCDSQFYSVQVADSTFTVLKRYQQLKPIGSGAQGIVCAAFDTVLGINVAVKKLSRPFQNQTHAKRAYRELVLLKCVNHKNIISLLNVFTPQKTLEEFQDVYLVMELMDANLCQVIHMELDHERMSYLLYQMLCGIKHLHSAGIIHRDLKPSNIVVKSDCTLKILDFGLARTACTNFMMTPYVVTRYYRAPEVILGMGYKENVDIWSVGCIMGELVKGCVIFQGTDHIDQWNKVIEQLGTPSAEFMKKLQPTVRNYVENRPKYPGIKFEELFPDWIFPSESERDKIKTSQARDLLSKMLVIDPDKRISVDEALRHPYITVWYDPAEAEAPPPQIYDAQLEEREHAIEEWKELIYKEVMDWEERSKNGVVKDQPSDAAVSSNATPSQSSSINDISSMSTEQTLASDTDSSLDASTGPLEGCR
Sequence of hJNK3 (P53779 whole entry, looked up): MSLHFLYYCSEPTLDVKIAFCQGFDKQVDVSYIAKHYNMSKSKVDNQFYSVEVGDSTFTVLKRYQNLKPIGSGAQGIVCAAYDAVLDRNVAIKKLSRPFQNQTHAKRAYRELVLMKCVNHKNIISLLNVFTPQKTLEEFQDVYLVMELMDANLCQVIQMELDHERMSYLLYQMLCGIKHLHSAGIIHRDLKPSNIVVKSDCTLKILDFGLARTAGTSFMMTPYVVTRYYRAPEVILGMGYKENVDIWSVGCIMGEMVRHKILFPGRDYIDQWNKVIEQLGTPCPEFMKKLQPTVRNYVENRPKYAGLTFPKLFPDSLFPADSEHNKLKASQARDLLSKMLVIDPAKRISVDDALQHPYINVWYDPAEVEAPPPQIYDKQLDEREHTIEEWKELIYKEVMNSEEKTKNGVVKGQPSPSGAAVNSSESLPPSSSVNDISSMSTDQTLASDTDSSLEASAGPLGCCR

Structure (SMILES)	IC50 [1] [nM]	IC50 ([2]; read-out: hJNK2 | IC50) [nM]	IC50 [3] [nM]	IC50 [2] [nM]
CC(C)C[C@H](NC(=O)[C@@H](NC(=O)[C@@H](NC(=O)[C@@H]1CCCN1C(=O)[C@H](CCCNC(=N)N)NC(=O)[C@@H](CCCCN)NC(=O)[C@@H]1CCCN1C(=O)[C@H](CCCNC(=N)N)NC(=O)[C@@H](CCCNC(=N)N)NC(=O)[C@H](CCCNC(=N)N)NC(=O)[C@H](CCCNC(=N)N)NC(=O)[C@H](CCC(N)=O)NC(=O)[C@@H](CCCNC(=N)N)NC(=O)[C@H](CCCNC(=N)N)NC(=O)[C@H](CCCCN)NC(=O)[C@H](CCCCN)NC(=O)[C@H](N)CCCNC(=N)N)[C@@H](C)O)[C@@H](C)O)C(=O)N[C@H](CCCNC(=N)N)C(=O)N[C@@H](CC(C)C)C(=O)N[C@H](Cc1ccccc1)C(N)=O [SEQ ID NO: 173, rKKRrQRRrRPkRPTTLrLf] (H-[dR]KKR[dR]QRR[dR]RP[dK]RPTTL[dR]L[dF]-NH2)	16.8	30	88.4	–
CC(C)C[C@H](NC(=O)[C@H](CC(N)=O)NC(=O)[C@H](CC(C)C)NC(=O)[C@@H](NC(=O)[C@@H](NC(=O)[C@@H]1CCCN1C(=O)[C@H](CCCNC(=N)N)NC(=O)[C@@H](CCCNC(=N)N)NC(=O)[C@H](CCCNC(=N)N)NC(=O)[C@H](CCCNC(=N)N)NC(=O)[C@H](CCC(N)=O)NC(=O)[C@@H](CCCNC(=N)N)NC(=O)[C@H](CCCNC(=N)N)NC(=O)[C@H](CCCCN)NC(=O)[C@H](CCCCN)NC(=O)[C@H](N)CCCNC(=N)N)[C@@H](C)O)[C@@H](C)O)C(=O)N[C@H](Cc1ccccc1)C(N)=O [SEQ ID NO: 174, rKKRrQRRrRPTTLNLf] (H-[dR]KKR[dR]QRR[dR]RPTTLNL[dF]-NH2)	63.1	120	334	–
CC(C)C[C@H](NC(=O)[C@H](CC(N)=O)NC(=O)[C@H](CC(C)C)NC(=O)[C@@H](NC(=O)[C@@H](NC(=O)[C@@H]1CCCN1C(=O)[C@H](CCCNC(=N)N)NC(=O)[C@@H](CCCNC(=N)N)NC(=O)[C@H](CCCNC(=N)N)NC(=O)[C@H](CCC(N)=O)NC(=O)[C@@H](CCCNC(=N)N)NC(=O)[C@H](CCCNC(=N)N)NC(=O)[C@H](CCCCN)NC(=O)[C@H](CCCCN)NC(=O)[C@H](N)CCCNC(=N)N)[C@@H](C)O)[C@@H](C)O)C(=O)N[C@H](Cc1ccccc1)C(N)=O [SEQ ID NO: 175, rKKRrQRrRPTTLNLf] (H-[dR]KKR[dR]QR[dR]RPTTLNL[dF]-NH2)	60.6	82.3	185	–
CC(C)C[C@H](NC(=O)[C@H](CC(N)=O)NC(=O)[C@H](CC(C)C)NC(=O)[C@@H](NC(=O)[C@@H](NC(=O)[C@@H]1CCCN1C(=O)[C@H](CCCNC(=N)N)NC(=O)[C@@H](CCCCN)NC(=O)[C@@H]1CCCN1C(=O)[C@H](CCCNC(=N)N)NC(=O)[C@@H](CCCNC(=N)N)NC(=O)[C@H](CCCNC(=N)N)NC(=O)[C@H](CCCNC(=N)N)NC(=O)[C@H](CCC(N)=O)NC(=O)[C@@H](CCCNC(=N)N)NC(=O)[C@H](CCCNC(=N)N)NC(=O)[C@H](CCCCN)NC(=O)[C@H](CCCCN)NC(=O)[C@H](N)CCCNC(=N)N)[C@@H](C)O)[C@@H](C)O)C(=O)N[C@H](Cc1c[nH]c2ccccc12)C(N)=O [SEQ ID NO: 176, rKKRrQRRrRPkRPTTLNLw] (H-[dR]KKR[dR]QRR[dR]RP[dK]RPTTLNL[dW]-NH2)	22.4	40.3	131	–
CC(C)C[C@H](NC(=O)[C@H](CC(=O)O)NC(=O)[C@@H](NC(=O)[C@@H]1CCCN1C(=O)[C@H](CCCNC(=N)N)NC(=O)[C@@H](CCCCN)NC(=O)[C@@H]1CCCN1C(=O)[C@H](CCCNC(=N)N)NC(=O)[C@@H](CCCNC(=N)N)NC(=O)[C@H](CCCNC(=N)N)NC(=O)[C@H](CCCNC(=N)N)NC(=O)[C@H](CCC(N)=O)NC(=O)[C@@H](CCCNC(=N)N)NC(=O)[C@H](CCCNC(=N)N)NC(=O)[C@H](CCCCN)NC(=O)[C@H](CCCCN)NC(=O)[C@H](N)CCCNC(=N)N)[C@@H](C)O)C(=O)N[C@@H](CC(N)=O)C(=O)N[C@@H](CC(C)C)C(=O)N[C@H](Cc1ccccc1)C(N)=O [SEQ ID NO: 177, rKKRrQRRrRPkRPTDLNLf] (H-[dR]KKR[dR]QRR[dR]RP[dK]RPTDLNL[dF]-NH2)	45.4	87.2	355	–
CC(C)C[C@H](NC(=O)[C@@H](NC(=O)[C@@H](NC(=O)[C@@H]1CCCN1C(=O)[C@H](CCCNC(=N)N)NC(=O)[C@@H](CCCNC(=N)N)NC(=O)[C@H](CCCNC(=N)N)NC(=O)[C@H](CCCNC(=N)N)NC(=O)[C@H](CCC(N)=O)NC(=O)[C@@H](CCCNC(=N)N)NC(=O)[C@H](CCCNC(=N)N)NC(=O)[C@H](CCCCN)NC(=O)[C@H](CCCCN)NC(=O)[C@H](N)CCCNC(=N)N)[C@@H](C)O)[C@@H](C)O)C(=O)N[C@H](CCCNC(=N)N)C(=O)N[C@@H](CC(C)C)C(=O)N[C@H](Cc1c[nH]c2ccccc12)C(N)=O [SEQ ID NO: 178, rKKRrQRRrRPTTLrLw] (H-[dR]KKR[dR]QRR[dR]RPTTL[dR]L[dW]-NH2)	30.4	109	329	–
CC(C)C[C@H](NC(=O)[C@@H](NC(=O)[C@@H](NC(=O)[C@@H]1CCCN1C(=O)[C@H](CCCNC(=N)N)NC(=O)[C@@H](CCCNC(=N)N)NC(=O)[C@H](CCCNC(=N)N)NC(=O)[C@H](CCC(N)=O)NC(=O)[C@@H](CCCNC(=N)N)NC(=O)[C@H](CCCNC(=N)N)NC(=O)[C@H](CCCCN)NC(=O)[C@H](CCCCN)NC(=O)[C@H](N)CCCNC(=N)N)[C@@H](C)O)[C@@H](C)O)C(=O)N[C@H](CCCNC(=N)N)C(=O)N[C@@H](CC(C)C)C(=O)N[C@H](Cc1c[nH]c2ccccc12)C(N)=O [SEQ ID NO: 179, rKKRrQRrRPTTLrLw] (H-[dR]KKR[dR]QR[dR]RPTTL[dR]L[dW]-NH2)	45.7	122	249	–
CC(C)C[C@H](NC(=O)[C@H](CC(=O)O)NC(=O)[C@@H](NC(=O)[C@@H]1CCCN1C(=O)[C@H](CCCNC(=N)N)NC(=O)[C@@H](CCCNC(=N)N)NC(=O)[C@H](CCCNC(=N)N)NC(=O)[C@H](CCCNC(=N)N)NC(=O)[C@H](CCC(N)=O)NC(=O)[C@@H](CCCNC(=N)N)NC(=O)[C@H](CCCNC(=N)N)NC(=O)[C@H](CCCCN)NC(=O)[C@H](CCCCN)NC(=O)[C@H](N)CCCNC(=N)N)[C@@H](C)O)C(=O)N[C@H](CCCNC(=N)N)C(=O)N[C@@H](CC(C)C)C(=O)N[C@H](Cc1c[nH]c2ccccc12)C(N)=O [SEQ ID NO: 180, rKKRrQRRrRPTDLrLw] (H-[dR]KKR[dR]QRR[dR]RPTDL[dR]L[dW]-NH2)	47	118	265	–
CC(C)C[C@H](NC(=O)[C@H](CC(=O)O)NC(=O)[C@@H](NC(=O)[C@@H]1CCCN1C(=O)[C@H](CCCNC(=N)N)NC(=O)[C@@H](CCCNC(=N)N)NC(=O)[C@H](CCCNC(=N)N)NC(=O)[C@H](CCC(N)=O)NC(=O)[C@@H](CCCNC(=N)N)NC(=O)[C@H](CCCNC(=N)N)NC(=O)[C@H](CCCCN)NC(=O)[C@H](CCCCN)NC(=O)[C@H](N)CCCNC(=N)N)[C@@H](C)O)C(=O)N[C@H](CCCNC(=N)N)C(=O)N[C@@H](CC(C)C)C(=O)N[C@H](Cc1c[nH]c2ccccc12)C(N)=O [SEQ ID NO: 181, rKKRrQRrRPTDLrLw] (H-[dR]KKR[dR]QR[dR]RPTDL[dR]L[dW]-NH2)	47.6	160	294	–
CC(C)C[C@H](NC(=O)[C@H](CC(N)=O)NC(=O)[C@H](CC(C)C)NC(=O)[C@@H](NC(=O)[C@@H](C)NC(=O)[C@@H]1CCCN1C(=O)[C@H](CCCNC(=N)N)NC(=O)[C@@H](CCCNC(=N)N)NC(=O)[C@H](CCCNC(=N)N)NC(=O)[C@H](CCCNC(=N)N)NC(=O)[C@H](CCC(N)=O)NC(=O)[C@@H](CCCNC(=N)N)NC(=O)[C@H](CCCNC(=N)N)NC(=O)[C@H](CCCCN)NC(=O)[C@H](CCCCN)NC(=O)[C@H](N)CCCNC(=N)N)[C@@H](C)O)C(=O)N[C@H](Cc1ccccc1)C(N)=O [SEQ ID NO: 182, rKKRrQRRrRPaTLNLf] (H-[dR]KKR[dR]QRR[dR]RP[dA]TLNL[dF]-NH2)	59.4	168	1680	–
CC(C)C[C@H](NC(=O)[C@H](CC(N)=O)NC(=O)[C@H](CC(C)C)NC(=O)[C@@H](NC(=O)[C@@H](C)NC(=O)[C@@H]1CCCN1C(=O)[C@H](CCCNC(=N)N)NC(=O)[C@@H](CCCNC(=N)N)NC(=O)[C@H](CCCNC(=N)N)NC(=O)[C@H](CCC(N)=O)NC(=O)[C@@H](CCCNC(=N)N)NC(=O)[C@H](CCCNC(=N)N)NC(=O)[C@H](CCCCN)NC(=O)[C@H](CCCCN)NC(=O)[C@H](N)CCCNC(=N)N)[C@@H](C)O)C(=O)N[C@H](Cc1ccccc1)C(N)=O [SEQ ID NO: 183, rKKRrQRrRPaTLNLf] (H-[dR]KKR[dR]QR[dR]RP[dA]TLNL[dF]-NH2)	199	427	2590	–
C[C@H](NC(=O)[C@H](C)NC(=O)[C@@H](C)NC(=O)[C@H](C)NC(=O)[C@H](C)NC(=O)[C@@H](CCCCN)NC(=O)[C@@H]1CCCN1C(=O)[C@H](CCCNC(=N)N)NC(=O)[C@@H](CCCNC(=N)N)NC(=O)[C@H](CCCNC(=N)N)NC(=O)[C@H](CCCNC(=N)N)NC(=O)[C@H](CCC(N)=O)NC(=O)[C@@H](CCCNC(=N)N)NC(=O)[C@H](CCCNC(=N)N)NC(=O)[C@H](CCCCN)NC(=O)[C@H](CCCCN)NC(=O)[C@H](N)CCCNC(=N)N)C(=O)N[C@@H](CC(N)=O)C(=O)N[C@@H](C)C(=O)N[C@H](Cc1ccccc1)C(N)=O [compound 200, NH2 r K K R r Q R R r R P k A A a A A N A f CONH2] (H-[dR]KKR[dR]QRR[dR]RP[dK]AA[dA]AANA[dF]-NH2)	–	–	–	3320

From US11331364B2, “Use for JNK inhibitor molecules for treatment of various diseases” (Xigen Inflammation Ltd., priority 2014, dated 2022)
